# Laboratory results from PubChem BioAssay AID1963964 (Molecular Pharmacology Branch, DTP, NCI, 2024).
# Test system: 997726-040-R-J2-PDC tumor spheroids, viability
# Experiment: Anticancer human tumor 997726-040-R-J2-PDC patient-derived squamous cell lung carcinoma cell line growth inhibition [PI3K]
# Details: spheroids with HUVEC and MSC; for IC50: curve of first compound; for viability, T/C: stronger effect = lower value
# Method in brief: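 Multi-cell spheroids combine tumor cells with HUVEC and human MSCs, treated with targeted agents alone or with inavolisib, alpelisib, duvelisib or copanlisib. Concentrations fall in half-log steps from at or near clinical Cmax, or from 10 microM where Cmax is unknown; viability read-out.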
# [1] = second compound 0.00316 µM, first compound 0.0316 µM
# [2] = second compound 0.00316 µM, first compound 0.1 µM
# [3] = second compound 0.00316 µM, first compound 0.316 µM
# [4] = second compound 0.00316 µM, first compound 1 µM
# [5] = second compound 0.00316 µM, first compound 3.16 µM
# [6] = second compound 0.00316 µM, first compound 10 µM
# [7] = second compound 0.01 µM, first compound 0.0316 µM
# [8] = second compound 0.01 µM, first compound 0.1 µM
# [9] = second compound 0.01 µM, first compound 0.316 µM
# [10] = second compound 0.01 µM, first compound 1 µM
# [11] = second compound 0.01 µM, first compound 3.16 µM
# [12] = second compound 0.01 µM, first compound 10 µM
# [13] = second compound 0.0316 µM, first compound 0.0316 µM
# [14] = second compound 0.0316 µM, first compound 0.1 µM
# [15] = second compound 0.0316 µM, first compound 0.316 µM
# [16] = second compound 0.0316 µM, first compound 1 µM
# [17] = second compound 0.0316 µM, first compound 3.16 µM
# [18] = second compound 0.0316 µM, first compound 10 µM
# [19] = second compound 0.1 µM, first compound 0.0316 µM
# [20] = second compound 0.1 µM, first compound 0.1 µM
# [21] = second compound 0.1 µM, first compound 0.316 µM
# [22] = second compound 0.1 µM, first compound 1 µM
# [23] = second compound 0.1 µM, first compound 3.16 µM
# [24] = second compound 0.1 µM, first compound 10 µM
# [25] = second compound 0.316 µM, first compound 0.0316 µM
# [26] = second compound 0.316 µM, first compound 0.1 µM
# [27] = second compound 0.316 µM, first compound 0.316 µM
# [28] = second compound 0.316 µM, first compound 1 µM
# [29] = second compound 0.316 µM, first compound 3.16 µM
# [30] = second compound 0.316 µM, first compound 10 µM
# [31] = second compound 1 µM, first compound 0.0316 µM
# [32] = second compound 1 µM, first compound 0.1 µM
# [33] = second compound 1 µM, first compound 0.316 µM
# [34] = second compound 1 µM, first compound 1 µM
# [35] = second compound 1 µM, first compound 3.16 µM
# [36] = second compound 1 µM, first compound 10 µM
# 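Note: spheroids exposed to compounds for seven days before readout.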
structure (smiles),measurement,setting,value
CC(Cn1ccc(-c2ccc(C#N)c(Cl)c2)n1)NC(=O)c1cc(C(C)O)[nH]n1 (centres undefined) + COc1c(OCCCN2CCOCC2)ccc2c3n(c(=NC(=O)c4cnc(N)nc4)nc12)CCN3,IC50,second compound 0.00316 µM,> 10 µM
same,IC50,second compound 0.01 µM,> 10 µM
same,IC50,second compound 0.0316 µM,< 0.0316 µM
same,IC50,second compound 0.1 µM,< 0.0316 µM
same,IC50,second compound 0.316 µM,< 0.0316 µM
same,IC50,second compound 1 µM,< 0.0316 µM
same,"viability, T/C",[1],69.7%
same,"viability, T/C",[2],67%
same,"viability, T/C",[3],78.8%
same,"viability, T/C",[4],78.8%
same,"viability, T/C",[5],82.3%
same,"viability, T/C",[6],74%
same,"viability, T/C",[7],57.3%
same,"viability, T/C",[8],60.4%
same,"viability, T/C",[9],59.9%
same,"viability, T/C",[10],56.1%
same,"viability, T/C",[11],54.6%
same,"viability, T/C",[12],54.8%
same,"viability, T/C",[13],35.7%
same,"viability, T/C",[14],36.3%
same,"viability, T/C",[15],41%
same,"viability, T/C",[16],33.6%
same,"viability, T/C",[17],37.6%
same,"viability, T/C",[18],37.2%
same,"viability, T/C",[19],23%
same,"viability, T/C",[20],21.4%
same,"viability, T/C",[21],21.5%
same,"viability, T/C",[22],24.5%
same,"viability, T/C",[23],22.6%
same,"viability, T/C",[24],22.9%
same,"viability, T/C",[25],4.78%
same,"viability, T/C",[26],4.57%
same,"viability, T/C",[27],5.76%
same,"viability, T/C",[28],6.82%
same,"viability, T/C",[29],4.57%
same,"viability, T/C",[30],5.74%
same,"viability, T/C",[31],1.37%
same,"viability, T/C",[32],1.18%
same,"viability, T/C",[33],1.28%
same,"viability, T/C",[34],1.44%
same,"viability, T/C",[35],1.61%
same,"viability, T/C",[36],1.51%
CC1(C)CCC(Nc2ncc(C(F)(F)F)c(-c3c[nH]c4c(P(C)(C)=O)c(C#N)ccc34)n2)CN1 (centres undefined) + COc1c(OCCCN2CCOCC2)ccc2c3n(c(=NC(=O)c4cnc(N)nc4)nc12)CCN3,IC50,second compound 0.00316 µM,< 0.0316 µM
same,IC50,second compound 0.01 µM,< 0.0316 µM
same,IC50,second compound 0.0316 µM,< 0.0316 µM
same,IC50,second compound 0.1 µM,< 0.0316 µM
same,IC50,second compound 0.316 µM,< 0.0316 µM
same,IC50,second compound 1 µM,< 0.0316 µM
same,"viability, T/C",[1],36.8%
same,"viability, T/C",[2],34.2%
same,"viability, T/C",[3],40.7%
same,"viability, T/C",[4],34.8%
same,"viability, T/C",[5],39.8%
same,"viability, T/C",[6],16.6%
same,"viability, T/C",[7],27%
same,"viability, T/C",[8],28.9%
same,"viability, T/C",[9],29.9%
same,"viability, T/C",[10],30.5%
same,"viability, T/C",[11],33.6%
same,"viability, T/C",[12],12.6%
same,"viability, T/C",[13],21.4%
same,"viability, T/C",[14],17.6%
same,"viability, T/C",[15],18.2%
same,"viability, T/C",[16],24.8%
same,"viability, T/C",[17],23.9%
same,"viability, T/C",[18],7.84%
same,"viability, T/C",[19],13.5%
same,"viability, T/C",[20],12.1%
same,"viability, T/C",[21],13.2%
same,"viability, T/C",[22],13.9%
same,"viability, T/C",[23],15%
same,"viability, T/C",[24],2.98%
same,"viability, T/C",[25],3.97%
same,"viability, T/C",[26],3.68%
same,"viability, T/C",[27],3.96%
same,"viability, T/C",[28],5.01%
same,"viability, T/C",[29],4.34%
same,"viability, T/C",[30],0.66%
same,"viability, T/C",[31],0.85%
same,"viability, T/C",[32],0.74%
same,"viability, T/C",[33],0.9%
same,"viability, T/C",[34],0.76%
same,"viability, T/C",[35],0.9%
same,"viability, T/C",[36],0.33%
